Measured values published in US20240341340A1, “EYE DAMAGE PREVENTION COMPOSITION CONTAINING DENDROPANAX MORBIFERA LEV. EXTRACT” (KOREA GINSENG CORP., priority 2021, published 2024).

Tests used:
Assay type in all cases: in vivo, mouse
[1] = tested on: BALB/c mice, white LED light-induced loss of optic nerve cells; assay: Electroretinogram (wave a and wave b) in light-induced macular degeneration animal model; conditions: 6.5 mg/kg/day oral
From the text: An electroretinogram (ERG) is a degree of electric potential of the retinal optic nerve representing an electrical signal generated by a response of the optic nerve to light, and is used as an index to determine the presence/absence of retinal damage or disease. The electroretinogram consists of wave a and wave b, in which the wave a is generated by photoreceptors, and the wave b is generated by depolarization of bipolar cells in the inner nuclear layer of the retina by light stimulation. In order to confirm whether a Dendropanax morbifera extract has the effect of improving the decrease of activity of visual cells in an animal model in which optic nerve cell damage was caused by the irradiation of an excessive light source and loss of optic nerve cells similar to dry macular degeneration was induced, the electroretinogram was measured. […] An appropriate amount of 1% methylcellulose was added to the eyeballs while maintaining body temperature under general anesthesia, and the gold wire loops recording electrode was grounded to the cornea, and the reference electrode was placed on the cheek area, and the ground electrode was grounded to the tail, and then the electroretinogram was measured using Retiport (Roland Consult, Germany). […]

[2] = tested on: BALB/c mice, MNU-induced loss of optic nerve cells; assay: Outer nuclear layer thickness in N-methyl-N-nitrosourea (MNU) animal model; conditions: 6.5 and 13 mg/kg/day oral for 7 days
Experimental: In order to confirm the effect of the Dendropanax morbifera extract on improving damage or deformation of photoreceptor cells, N-methyl-N-nitrosourea (MNU) toxic to photoreceptor cells was administered, and the changes in thickness of the outer nuclear layer (ONL) of the retina were measured in an animal model where loss of optic nerve cells similar to dry macular degeneration was induced. Specifically, 6-week-old male BALB/c mice (Orient Bio Inc.) were acclimatized for one week, and N-methyl-N-nitrosourea (MNU) (Sigma, USA) was prepared to a concentration of 1% in a 0.05% acetic acid solution and was administered intraperitoneally to mice at a concentration of 1%, 60 mg/kg per individual, in which only the same amount of 0.05% acetic acid was administered intraperitoneally in the negative control. The test drug was orally administered once daily for 7 days from the same day after administration of N-methyl-N-nitrosourea. […] The slide sections were stained with hematoxylin & eosin (H&E) and observed under an optical microscope, and damage or deformation of photoreceptor cells was evaluated by measuring changes in the thickness of the outer nuclear layer of retinal tissue.

[3] = tested on: BALB/c mice, white LED light-induced loss of optic nerve cells; assay: Outer nuclear layer thickness in light-induced macular degeneration animal model; conditions: 6.5 mg/kg/day oral for 7 days
From the text: When drusen accumulates in the macular area due to dry macular degeneration, the macular area is photooxidized and causes damage to surrounding tissues and optic nerve cells, thereby resulting in a decrease of visual acuity, and in severe cases, geographic atrophy occurs, a condition in which optic nerve cells are lost and retinal apoptosis is induced. In order to determine whether a Dendropanax morbifera extract has the effect of improving damage or deformation of photoreceptor cells in an animal model where optic nerve cell damage was caused by excessive irradiation of a light source including blue light and loss of optic nerve cells similar to dry macular degeneration, the changes in the thickness of outer nuclear layer (ONL) of the retina were measured. Specifically, 6-week-old male BALB/c mice (Orient Bio Inc.) were acclimatized for one week and then subjected to dark adaptation in a dark place without light for 14 hours from the evening before white LED exposure containing blue light, and then, their pupils were dilated with 1% tropicamide eye drop the next morning. […] The slide sections were stained with hematoxylin & eosin (H&E) and observed under an optical microscope, and damage or deformation of photoreceptor cells was evaluated by measuring changes in the thickness of the outer nuclear layer of retinal tissue

O=C(/C=C/c1ccc(O)c(O)c1)O[C@@H]1C[C@@](O)(C(=O)O)C[C@@H](O)[C@@H]1O [neochlorogenic acid, Neochlorogenic acid]
not statistically significant: improvement of retinal nerve conduction (positive control) [1] | increase of thickness of the outer nuclear layer (positive control) [2] | increase of thickness of the outer nuclear layer (positive control) [3]
